# Patent US20220125795A1, “THERAPEUTIC COMBINATIONS AND COMPOSITIONS FOR THE TREATMENT OF INFLAMMATORY BOWEL DISEASE” (RIJKSUNIVERSITEIT GRONINGEN, priority 2019, published 2022)
# Assays:
# Format in all cases: in vivo, human
# [1] = Prospective clinical intervention study in CD patients: clinical disease activity (Harvey-Bradshaw Index); settings: 100 mg riboflavin daily for 3 weeks, before vs after
# Description: (§1) In a prospective clinical intervention study, 70 CD patients were included and divided into two groups with (active) and without (quiescent) evidence of mucosal inflammation (defined by fecal calprotectin (FC) cut-off value: 200 μg/g). Patients received 100 mg riboflavin daily for 3 weeks. Clinical disease activity (Harvey-Bradshaw Index: HBI), inflammatory biomarkers (including interleukin 2) as well as fecal microbial composition (including pathogenic Enterobacteriaceae including E. coli) were analyzed before and after riboflavin intervention.
# interleukin 2 = experiment: Prospective clinical intervention study in CD patients: inflammatory biomarkers (interleukin 2); settings: CD patients with thiopurine treatment; 100 mg riboflavin daily for 3 weeks
# Description: as §1
# [2] = system: Enterobacteriaceae including E. coli; experiment: Prospective clinical intervention study in CD patients: fecal microbial composition; settings: CD patients with thiopurine treatment; 100 mg riboflavin daily for 3 weeks
# Description: as §1
structure (smiles),measurement,setting,value
Cc1cc2nc3c(=O)[nH]c(=O)nc-3n(C[C@H](O)[C@H](O)[C@H](O)CO)c2cc1C [riboflavin],clinical disease activity (HBI),[1]; CD patients with mesalazine treatment,this was not the case (not as pronounced as)
same,clinical disease activity (HBI),[1]; CD patients with thiopurine treatment (particularly quiescent disease),further reduced clinical disease activity (HBI)
same,proinflammatory cytokine IL2,interleukin 2,further reduction
same,Enterobacteriaceae including E. coli (fecal),[2],further reduction
